According to the OligoGym collection:
HELM strings list units from the 5' end as sugar, base in round brackets, then linkage (d deoxyribose, r ribose, m 2'-O-methyl, p phosphodiester). Strings are as the collection lists them; they lack the last nucleoside at the 3' end of the tested compound. [moe] = 2'-O-(2-methoxyethyl) (MOE); [sp] = phosphorothioate linkage; [m5C] = 5-methylcytosine

Target: GFAP
Test: mouse, dose not given
Settings: ASO

Row | Substance | 3 h FOB score
1 | RNA1{[moe](G)[sp].[moe](T)p.[moe]([m5C])p.[moe](A)p.[moe](G)p.d([m5C])[sp].d([m5C])[sp].d(T)[sp].d(G)[sp].d(G)[sp].d(T)[sp].d(T)[sp].d(A)[sp].d(G)[sp].d([m5C])[sp].[moe]([m5C])p.[moe](T)p.[moe](T)[sp].[moe](T)}$$$$ (last 3' nucleoside missing) | 5 score 0-7
2 | RNA1{[moe]([m5C])[sp].[moe]([m5C])p.[moe](A)p.[moe](G)p.[moe](T)p.d(G)[sp].d(T)[sp].d([m5C])[sp].d(T)[sp].d(T)[sp].d([m5C])[sp].d(A)[sp].d([m5C])[sp].d(T)[sp].d(T)[sp].[moe](T)p.[moe](G)p.[moe]([m5C])[sp].[moe](T)}$$$$ (last 3' nucleoside missing) | 0 score 0-7
3 | RNA1{[moe](T)[sp].[moe](T)p.[moe](G)p.[moe](G)p.[moe]([m5C])[sp].d(A)[sp].d(G)[sp].d(T)[sp].d(A)[sp].d(T)[sp].d(T)[sp].d(A)[sp].d([m5C])[sp].[moe]([m5C])p.[moe](T)p.[moe]([m5C])[sp].[moe](T)}$$$$ (last 3' nucleoside missing) | 0 score 0-7
4 | RNA1{[moe](T)[sp].[moe]([m5C])p.[moe](T)p.[moe]([m5C])p.[moe](T)[sp].d([m5C])[sp].d([m5C])[sp].d(T)[sp].d(G)[sp].d(T)[sp].d(T)[sp].d(T)[sp].d([m5C])[sp].d(A)[sp].d(G)[sp].[moe]([m5C])p.[moe](A)p.[moe](T)[sp].[moe]([m5C])}$$$$ (last 3' nucleoside missing) | 3 score 0-7
5 | RNA1{[moe]([m5C])[sp].[moe](A)p.[moe](T)p.[moe]([m5C])p.[moe](T)[sp].d(G)[sp].d([m5C])[sp].d(T)[sp].d(T)[sp].d([m5C])[sp].d([m5C])[sp].d(T)[sp].d(G)[sp].d(G)[sp].d(A)[sp].[moe](G)p.[moe](T)p.[moe](G)[sp].[moe](G)}$$$$ (last 3' nucleoside missing) | 1 score 0-7
6 | RNA1{[moe](G)[sp].[moe]([m5C])p.[moe](T)p.[moe](T)p.d(T)[sp].d(T)[sp].d(G)[sp].d([m5C])[sp].d([m5C])[sp].d([m5C])[sp].d([m5C])[sp].d([m5C])[sp].d(T)[sp].d(G)[sp].[moe](T)p.[moe](A)p.[moe](G)p.[moe](T)[sp].[moe](G)}$$$$ (last 3' nucleoside missing) | 3 score 0-7
7 | RNA1{[moe]([m5C])[sp].[moe](T)p.[moe]([m5C])p.[moe](T)p.[moe](A)[sp].d(T)[sp].d([m5C])[sp].d([m5C])[sp].d([m5C])[sp].d(T)[sp].d([m5C])[sp].d([m5C])[sp].d([m5C])[sp].d(A)[sp].d(G)[sp].[moe]([m5C])p.[moe](A)p.[moe]([m5C])[sp].[moe]([m5C])}$$$$ (last 3' nucleoside missing) | 2 score 0-7
8 | RNA1{[moe]([m5C])[sp].[moe](T)p.[moe]([m5C])p.[moe]([m5C])p.[moe](A)[sp].d(T)[sp].d([m5C])[sp].d(T)[sp].d([m5C])[sp].d(T)[sp].d(G)[sp].d(G)[sp].d([m5C])[sp].d(A)[sp].d(A)[sp].[moe]([m5C])p.[moe](A)p.[moe](G)[sp].[moe](T)}$$$$ (last 3' nucleoside missing) | 4 score 0-7
9 | RNA1{[moe](G)[sp].[moe](T)p.[moe]([m5C])p.[moe](A)p.[moe](G)[sp].d([m5C])[sp].d([m5C])[sp].d(T)[sp].d(G)[sp].d(G)[sp].d(T)[sp].d(T)[sp].d(A)[sp].d(G)[sp].d([m5C])[sp].[moe]([m5C])p.[moe](T)p.[moe](T)[sp].[moe](T)}$$$$ (last 3' nucleoside missing) | 6 score 0-7
10 | RNA1{[moe](A)[sp].[moe](G)p.[moe]([m5C])p.[moe](A)p.d(T)[sp].d(T)[sp].d(T)[sp].d(G)[sp].d(T)[sp].d([m5C])[sp].d(T)[sp].d(T)[sp].d(T)[sp].d(A)[sp].[moe](T)p.[moe](T)p.[moe](T)p.[moe](T)[sp].[moe](T)}$$$$ (last 3' nucleoside missing) | 1 score 0-7
11 | RNA1{[moe](G)[sp].[moe](G)p.[moe](G)p.[moe](T)p.[moe](G)[sp].d(A)[sp].d([m5C])[sp].d([m5C])[sp].d([m5C])[sp].d(A)[sp].d(A)[sp].d(G)[sp].d(T)[sp].d([m5C])[sp].d([m5C])[sp].[moe](T)p.[moe](T)p.[moe](G)[sp].[moe](G)}$$$$ (last 3' nucleoside missing) | 5 score 0-7
12 | RNA1{[moe](G)[sp].[moe](A)p.[moe](G)p.[moe](T)p.d(G)[sp].d(T)[sp].d(G)[sp].d(T)[sp].d(A)[sp].d(T)[sp].d(T)[sp].d(A)[sp].d(G)[sp].d(G)[sp].[moe](A)p.[moe](T)p.[moe]([m5C])p.[moe]([m5C])[sp].[moe]([m5C])}$$$$ (last 3' nucleoside missing) | 4 score 0-7
13 | RNA1{[moe](A)[sp].[moe](G)p.[moe](T)p.[moe]([m5C])p.[moe](A)p.[moe](G)p.d([m5C])[sp].d([m5C])[sp].d(T)[sp].d(G)[sp].d(G)[sp].d(T)[sp].d(T)[sp].d(A)[sp].d(G)[sp].d([m5C])[sp].[moe]([m5C])p.[moe](T)[sp].[moe](T)}$$$$ (last 3' nucleoside missing) | 3 score 0-7
14 | RNA1{[moe]([m5C])[sp].[moe](T)p.[moe]([m5C])p.[moe](A)p.[moe](G)p.[moe](T)p.d(T)[sp].d(T)[sp].d(T)[sp].d([m5C])[sp].d([m5C])[sp].d(T)[sp].d([m5C])[sp].d([m5C])[sp].d(A)[sp].d(G)[sp].[moe]([m5C])p.[moe](A)[sp].[moe](G)}$$$$ (last 3' nucleoside missing) | 2 score 0-7
15 | RNA1{[moe](T)[sp].[moe]([m5C])p.[moe](A)p.[moe]([m5C])p.[moe](A)[sp].d(T)[sp].d(T)[sp].d([m5C])[sp].d(A)[sp].d([m5C])[sp].d(T)[sp].d(A)[sp].d(A)[sp].[moe](T)p.[moe](A)p.[moe](T)[sp].[moe](T)}$$$$ (last 3' nucleoside missing) | 0 score 0-7
16 | RNA1{[moe](G)[sp].[moe](G)p.[moe](T)p.[moe](T)p.[moe](A)[sp].d(G)[sp].d([m5C])[sp].d([m5C])[sp].d(T)[sp].d(T)[sp].d(T)[sp].d([m5C])[sp].d(T)[sp].d(G)[sp].d(A)[sp].[moe](T)p.[moe](G)p.[moe]([m5C])[sp].[moe](T)}$$$$ (last 3' nucleoside missing) | 3 score 0-7
17 | RNA1{[moe](T)[sp].[moe](T)p.[moe](T)p.[moe](G)p.[moe](G)p.[moe]([m5C])p.d(A)[sp].d(G)[sp].d(T)[sp].d(A)[sp].d(T)[sp].d(T)[sp].d(A)[sp].d([m5C])[sp].d([m5C])[sp].d(T)[sp].[moe]([m5C])p.[moe](T)[sp].[moe](A)}$$$$ (last 3' nucleoside missing) | 0 score 0-7
18 | RNA1{[moe](G)[sp].[moe](G)p.[moe](A)p.[moe](T)p.[moe]([m5C])[sp].d(T)[sp].d([m5C])[sp].d([m5C])[sp].d(T)[sp].d([m5C])[sp].d([m5C])[sp].d(T)[sp].d([m5C])[sp].d([m5C])[sp].d(A)[sp].[moe](G)p.[moe]([m5C])p.[moe](G)[sp].[moe](A)}$$$$ (last 3' nucleoside missing) | 0 score 0-7
19 | RNA1{[moe](G)[sp].[moe]([m5C])p.[moe](A)p.[moe](G)p.d(T)[sp].d(A)[sp].d(T)[sp].d(T)[sp].d(A)[sp].d([m5C])[sp].d([m5C])[sp].d(T)[sp].d([m5C])[sp].d(T)[sp].[moe](A)p.[moe]([m5C])p.[moe](T)p.[moe](A)[sp].[moe](G)}$$$$ (last 3' nucleoside missing) | 1 score 0-7
20 | RNA1{[moe]([m5C])[sp].[moe](T)p.[moe](T)p.[moe](T)p.[moe](A)[sp].d(T)[sp].d(T)[sp].d(T)[sp].d(T)[sp].d(T)[sp].d([m5C])[sp].d([m5C])[sp].d(T)[sp].[moe]([m5C])p.[moe](A)p.[moe](G)[sp].[moe]([m5C])}$$$$ (last 3' nucleoside missing) | 4 score 0-7
21 | RNA1{[moe]([m5C])[sp].[moe](A)p.[moe](G)p.[moe]([m5C])p.[moe](A)[sp].d(G)[sp].d(T)[sp].d(G)[sp].d([m5C])[sp].d([m5C])[sp].d([m5C])[sp].d(T)[sp].d(G)[sp].d(A)[sp].d(A)[sp].[moe](G)p.[moe](A)p.[moe](T)[sp].[moe](T)}$$$$ (last 3' nucleoside missing) | 1 score 0-7
22 | RNA1{[moe](T)[sp].[moe]([m5C])p.[moe](A)p.[moe](G)p.[moe]([m5C])[sp].d([m5C])[sp].d(T)[sp].d(G)[sp].d(G)[sp].d(T)[sp].d(T)[sp].d(A)[sp].d(G)[sp].[moe]([m5C])p.[moe]([m5C])p.[moe](T)[sp].[moe](T)}$$$$ (last 3' nucleoside missing) | 3 score 0-7
23 | RNA1{[moe]([m5C])[sp].[moe](T)p.[moe](T)p.[moe](G)p.[moe](T)p.d(G)[sp].d(A)[sp].d(T)[sp].d(T)[sp].d(T)[sp].d(T)[sp].d([m5C])[sp].d([m5C])[sp].d([m5C])[sp].d([m5C])[sp].[moe](G)p.[moe](T)p.[moe]([m5C])[sp].[moe](T)}$$$$ (last 3' nucleoside missing) | 3 score 0-7
24 | RNA1{[moe](A)[sp].[moe](G)p.[moe](T)p.[moe](G)p.[moe](T)p.[moe](G)p.d(T)[sp].d(A)[sp].d(T)[sp].d(T)[sp].d(A)[sp].d(G)[sp].d(G)[sp].d(A)[sp].d(T)[sp].d([m5C])[sp].[moe]([m5C])p.[moe]([m5C])[sp].[moe](A)}$$$$ (last 3' nucleoside missing) | 4 score 0-7
25 | RNA1{[moe](G)[sp].[moe]([m5C])p.[moe](T)p.[moe](T)p.[moe](T)p.[moe](T)p.d(G)[sp].d(A)[sp].d(G)[sp].d(A)[sp].d(T)[sp].d(A)[sp].d(T)[sp].d([m5C])[sp].d(T)[sp].d(T)[sp].[moe](G)p.[moe](T)[sp].[moe](G)}$$$$ (last 3' nucleoside missing) | 2 score 0-7
26 | RNA1{[moe]([m5C])[sp].[moe](A)p.[moe](G)p.[moe]([m5C])p.[moe](A)p.[moe](T)p.d(T)[sp].d(T)[sp].d(G)[sp].d(T)[sp].d([m5C])[sp].d(T)[sp].d(T)[sp].d(T)[sp].d(A)[sp].d(T)[sp].[moe](T)p.[moe](T)[sp].[moe](T)}$$$$ (last 3' nucleoside missing) | 1 score 0-7
